What was measured:
Type in all cases: in vivo
[1] = tested on: umbrella sedge (Cyperus difformis); assay: Test B flooded paddy test; details: for Plant response rating, Flood, Sedge, Umbrella: 250 g ai/ha, flooded paddy test, visual rating on 0 to 100 scale (0 no effect, 100 complete control) after 13 to 15 days; for Plant response rating, Sedge, Umbrella: Flood (flooded paddy test), 13 to 15 days; for Sedge, Umbrella plant response rating: Flood, 31 g ai/ha, scale 0 to 100 (0 no effect, 100 complete control)
In short: (§1)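 Visual scores run from 0 (no effect) to 100 (complete control), assigned by comparison with controls 13 to 15 days after treatment. Test compounds went straight into water standing 3 cm above the soil, around plants at the 2-leaf stage kept in a greenhouse.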

[2] = tested on: barnyardgrass (Echinochloa crus-galli); assay: Test B flooded paddy test; details: for Plant response rating, Flood, Barnyardgrass: 250 g ai/ha, flooded paddy test, visual rating on 0 to 100 scale (0 no effect, 100 complete control) after 13 to 15 days; for Plant response rating, Barnyardgrass: Flood (flooded paddy test), 13 to 15 days; for Barnyardgrass plant response rating: Flood, 31 g ai/ha, scale 0 to 100 (0 no effect, 100 complete control)
In short: as §1

[3] = tested on: green foxtail (Setaria viridis); assay: Test B pre-/postemergence plant response
In short: (§2)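 Visually scored on a 0 to 100 scale after 13 to 15 days in greenhouse versus controls. Treatments were preemergence on seeded loam/sand soil and postemergence on 1- to 4-leaf plants.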

[4] = tested on: lambsquarters (Chenopodium album); assay: Test B pre-/postemergence plant response
In short: as §2

wild oat (Avena fatua) = assay: Test B pre-/postemergence plant response
In short: as §2

[5] = tested on: wheat (Triticum aestivum); assay: Test B pre-/postemergence plant response
In short: as §2

[6] = tested on: large crabgrass (Digitaria sanguinalis); assay: Test B pre-/postemergence plant response
In short: as §2

[7] = tested on: cocklebur (Xanthium strumarium); assay: Test B pre-/postemergence plant response
In short: as §2

[8] = tested on: goosegrass (Eleusine indica); assay: Test B pre-/postemergence plant response
In short: as §2

[9] = tested on: yellow nutsedge (Cyperus esculentus); assay: Test B pre-/postemergence plant response
In short: as §2

[10] = tested on: bermudagrass (Cynodon dactylon); assay: Test B pre-/postemergence plant response
In short: as §2

[11] = tested on: morningglory (Ipomoea coccinea); assay: Test B pre-/postemergence plant response
In short: as §2

[12] = 62 g ai/ha, scale of 0 to 100 where 0 is no effect and 100 is complete control
[13] = 125 g ai/ha, scale 0 to 100, 0 is no effect, 100 is complete control
[14] = Postemergence, 31 g ai/ha, 0 to 100 scale (0 no effect, 100 complete control)
[15] = Postemergence, 62 g ai/ha, scale 0 to 100 (0 no effect, 100 complete control)
[16] = Postemergence, 125 g ai/ha, scale 0 to 100 (0 no effect, 100 complete control)
[17] = Postemergence, 250 g ai/ha, scale 0 to 100 (0 no effect, 100 complete control), 13 to 15 days
[18] = Preemergence, 31 g ai/ha, scale 0 to 100 (0 no effect, 100 complete control)
[19] = Preemergence, 62 g ai/ha, scale 0 to 100 (0 no effect, 100 complete control)
[20] = Preemergence, 125 g ai/ha, scale 0 to 100, 0 no effect, 100 complete control
[21] = Preemergence, 250 g ai/ha, 0 to 100 scale
[22] = 31 g ai/ha, postemergence, scale 0 to 100, 0 is no effect, 100 is complete control
[23] = 62 g ai/ha, postemergence, 0 is no effect, 100 is complete control, 13 to 15 days
[24] = Postemergence, 250 g ai/ha, scale 0 to 100 (0 no effect, 100 complete control)
[25] = Postemergence, 125 g ai/ha, visual rating after 13 to 15 days, scale 0 (no effect) to 100 (complete control)

CCc1ccc(-n2c(-c3ccccc3)ncc(C(=O)C3=C(O)CCCC3=O)c2=O)cc1 [Compound 219]
Plant response rating, Flood, Sedge, Umbrella [1]: 85 | Plant response rating, Sedge, Umbrella [1, 12]: 40 | Plant response rating, Sedge, Umbrella [1, 13]: 60 | Sedge, Umbrella plant response rating [1]: 20 | Plant response rating, Flood, Barnyardgrass [2]: 60 | Plant response rating, Barnyardgrass [2, 12]: 0 | Plant response rating, Barnyardgrass [2, 13]: 20 | Barnyardgrass plant response rating [2]: 0 | Plant response rating, Foxtail, Green [3, 14]: 70 | Plant response rating, Foxtail, Green [3, 15]: 80 | Plant response rating, Foxtail, Green [3, 16]: 90 | Plant response rating, Foxtail, Green [3, 17]: 90 | Plant response rating, Foxtail, Green [3, 18]: 20 | Plant response rating, Foxtail, Green [3, 19]: 70 | Plant response rating, Foxtail, Green [3, 20]: 90 | Foxtail, Green plant response rating [3, 21]: 100 | Plant response rating, Lambsquarters [4, 14]: 100 | Plant response rating, Lambsquarters [4, 15]: 100 | Plant response rating, Lambsquarters [4, 16]: 100 | Plant response rating, Lambsquarters [4, 17]: 100 | Plant response rating, Lambsquarters [4, 18]: 100 | Plant response rating, Lambsquarters [4, 19]: 100 | Plant response rating, Lambsquarters [4, 20]: 100 | Lambsquarters plant response rating [4, 21]: 100 | Plant response rating, Oat, Wild (wild oat (Avena fatua); [14]): 50 | Plant response rating, Oat, Wild (wild oat (Avena fatua); [15]): 70 | Plant response rating, Oat, Wild (wild oat (Avena fatua); [17]): 85 | Plant response rating, Oat, Wild (wild oat (Avena fatua); [18]): 0 | Plant response rating, Oat, Wild (wild oat (Avena fatua); [19]): 0 | Plant response rating, Oat, Wild (wild oat (Avena fatua); [20]): 5 | Oat, Wild plant response rating (wild oat (Avena fatua); [21]): 40 | Plant response rating, Wheat [5, 14]: 40 | Plant response rating, Wheat [5, 15]: 50 | Plant response rating, Wheat [5, 17]: 50 | Plant response rating, Wheat [5, 18]: 0 | Plant response rating, Wheat [5, 19]: 0 | Plant response rating, Wheat [5, 20]: 0 | Wheat plant response rating [5, 21]: 0 | Plant response rating, Crabgrass, Large [6, 14]: 90 | Plant response rating, Crabgrass, Large [6, 15]: 95 | Plant response rating, Crabgrass, Large [6, 16]: 95 | Plant response rating, Crabgrass, Large [6, 17]: 98 | Plant response rating, Crabgrass, Large [6, 18]: 10 | Plant response rating, Crabgrass, Large [6, 19]: 98 | Plant response rating, Crabgrass, Large [6, 20]: 100 | Crabgrass, Large plant response rating [6, 21]: 100 | Plant response rating, Cocklebur [7, 19]: 75 | Cocklebur plant response rating [7, 21]: 85 | Plant response rating, Goosegrass [8, 14]: 90 | Plant response rating, Goosegrass [8, 15]: 95 | Plant response rating, Goosegrass [8, 16]: 95 | Plant response rating, Goosegrass [8, 17]: 95 | Plant response rating, Goosegrass [8, 18]: 98 | Plant response rating, Goosegrass [8, 19]: 100 | Plant response rating, Goosegrass [8, 20]: 100 | Goosegrass plant response rating [8, 21]: 100 | Plant response rating, Nutsedge, Yellow [9, 14]: 10 | Plant response rating, Nutsedge, Yellow [9, 15]: 55 | Plant response rating, Nutsedge, Yellow [9, 16]: 70 | Plant response rating, Nutsedge, Yellow [9, 17]: 85 | Plant response rating, Nutsedge, Yellow [9, 18]: 0 | Plant response rating, Nutsedge, Yellow [9, 19]: 45 | Plant response rating, Nutsedge, Yellow [9, 20]: 85 | Nutsedge, Yellow plant response rating [9, 21]: 90 | Plant response rating, Bermudagrass [10, 14]: 95 | Plant response rating, Bermudagrass [10, 15]: 98 | Plant response rating, Bermudagrass [10, 16]: 100 | Plant response rating, Bermudagrass [10, 17]: 100 | Plant response rating, Bermudagrass [10, 18]: 98 | Plant response rating, Bermudagrass [10, 19]: 100 | Plant response rating, Bermudagrass [10, 20]: 100 | Bermudagrass plant response rating ([10]; Preemergence, 250 g ai/ha, 0 to 100 scale, 0 no effect, 100 complete control): 100 | Plant response rating, Morningglory [11, 14]: 60 | Plant response rating, Morningglory [11, 15]: 85 | Plant response rating, Morningglory [11, 16]: 100 | Plant response rating, Morningglory [11, 17]: 100 | Plant response rating, Morningglory [11, 18]: 0 | Plant response rating, Morningglory [11, 19]: 0 | Plant response rating, Morningglory [11, 20]: 15 | Morningglory plant response rating [11, 21]: 100

COCCn1c(-c2ccccc2)ncc(C(=O)C2=C(O)CCCC2=O)c1=O [Compound 85]
Plant response rating, Flood, Sedge, Umbrella [1]: 80 | Plant response rating, Sedge, Umbrella [1, 12]: 75 | Plant response rating, Sedge, Umbrella [1, 13]: 80 | Sedge, Umbrella plant response rating [1]: 50 | Plant response rating, Flood, Barnyardgrass [2]: 65 | Plant response rating, Barnyardgrass [2, 12]: 25 | Plant response rating, Barnyardgrass [2, 13]: 55 | Barnyardgrass plant response rating [2]: 25 | Plant response rating, Foxtail, Green [3, 22]: 80 | Foxtail, Green plant response rating (0 to 100 scale) [3, 23]: 95 | Plant response rating, Foxtail, Green [3, 24]: 98 | Plant response rating, Lambsquarters [4, 22]: 98 | Lambsquarters plant response rating (0 to 100 scale) [4, 23]: 98 | Plant response rating, Lambsquarters [4, 24]: 100 | Plant response rating, Oat, Wild (wild oat (Avena fatua); [22]): 5 | Oat, Wild plant response rating (0 to 100 scale) (wild oat (Avena fatua); [23]): 25 | Plant response rating, Oat, Wild (wild oat (Avena fatua); [24]): 60 | Plant response rating, Wheat [5, 22]: 0 | Wheat plant response rating (0 to 100 scale) [5, 23]: 5 | Plant response rating, Wheat [5, 24]: 35 | Plant response rating, Crabgrass, Large [6, 22]: 90 | Crabgrass, Large plant response rating (0 to 100 scale) [6, 23]: 90 | Plant response rating, Crabgrass, Large [6, 25]: 90 | Plant response rating, Crabgrass, Large [6, 24]: 95 | Plant response rating, Cocklebur [7, 22]: 95 | Cocklebur plant response rating (0 to 100 scale) [7, 23]: 95 | Plant response rating, Cocklebur [7, 25]: 98 | Plant response rating, Cocklebur [7, 24]: 98 | Plant response rating, Goosegrass [8, 22]: 70 | Goosegrass plant response rating (0 to 100 scale) [8, 23]: 70 | Plant response rating, Goosegrass [8, 24]: 85 | Plant response rating, Nutsedge, Yellow [9, 22]: 75 | Nutsedge, Yellow plant response rating (0 to 100 scale) [9, 23]: 85 | Plant response rating, Nutsedge, Yellow [9, 24]: 85 | Plant response rating, Bermudagrass [10, 22]: 85 | Bermudagrass plant response rating (0 to 100 scale) [10, 23]: 85 | Plant response rating, Bermudagrass [10, 25]: 90 | Plant response rating, Bermudagrass [10, 24]: 90 | Plant response rating, Morningglory [11, 22]: 95 | Morningglory plant response rating (0 to 100 scale) [11, 23]: 100 | Plant response rating, Morningglory [11, 24]: 100

— patent US8952024B2, “Herbicidal pyrimidone derivatives” (E I du Pont de Nemours and Company, priority 2009, dated 2015)
